Entries after “also recorded” stand apart in the source; their conditions may differ.
Columns and labels:
[1] = tested on: TNF-α; conditions: literature refs 14-16; cited from earlier work
[2] = tested on: oxygen-induced retinopathy (retinal vasculature); test: O2-induced retinopathy: vaso-obliteration and neovascularization at P17; type: in vivo, mouse; conditions: for decrease in neovascularization (Tufts) compared to vehicle / decrease in vessel loss (VO) compared to vehicle control: 10 ng i.p. daily P6-P17, read at P17; for neovascularization at P17 compared to saline controls / protection from vaso-obliteration compared to saline-injected controls: 10 ng/day i.p. P6-P17
Procedure: (§1) O2-induced retinopathy (vessel degeneration, re-growth and pathological neovascularization). To induce vessel loss, postnatal day 7 (P7) mice with their nursing mother were exposed to 75% oxygen for times ranging from 24 hours to 5 days^1. To evaluate vaso-obliteration following 24 hours of oxygen exposure, P8 mice were anesthetized at with Avertin (Sigma) and perfused with 50 μl of 120 mg/ml FITC-dextran (2×10^6 molecular weight, FD2000S-5G, Sigma) in saline through the left ventricle^21. Eyes were enucleated and fixed in 4% paraformaldehyde for 2 h at 4° C. Retinas were isolated and whole-mounted with SlowFade Antifade reagent (S2828, Molecular Probes) onto polylysin-coated slides with the photoreceptor side up. Retinas were examined with a fluorescence microscope (Olympus, Tokyo), digitized images using a three-charge-coupled device color video camera (DX-950P, Sony), and processed with NORTHERN ECLIPSE software (Empix Imaging, Toronto). Retinal neovascularization was evaluated 5 days after oxygen exposure (P7-P12) at P17 when the neovascular response is greatest. P17 mice were given a lethal dose of Avertin (Sigma) and their eyes were enucleated and fixed in 4% paraformaldehyde for 2 h at 4° C. Retinas were isolated and stained overnight with fluoresceinated Griffonia Bandereiraea Simplicifolia Isolectin B4 (Alexa Fluor 488-121411 or Alexa Fluor 594-121413, Molecular Probes) in 1 mM CaCl2 in PBS. Following 2 hours of washes, retinas were whole-mounted with glycerol-gelatin (Sigma) onto polylysin-coated slides with the photoreceptor side up and imaged with a confocal microscope.
Quantification of vaso-obliteration and retinal neovascularization. Images of each of 4 quadrants of whole-mounted retina were taken at 5× magnification and imported into Adobe Photoshop. Retinal segments were merged to produce an image of the entire retina. Vaso-obliteration and neovascular tuft formation were quantified by comparing the number of pixels in the affected areas with the total number of pixels in the retina. Percentages of vaso-obliteration and neovascularization from mouse retinas were compared with values for retinas from age-matched control mice with identical oxygen conditions^17,22. Evaluation was done blind to the identity of the sample.
Resolvins and Neuroprotectins. C57B1/6 nursing mothers were fed a diet rich in either omega-6 or omega-3 polyunsaturated fatty acids from birth. To induce proliferative retinopathy in the pups, mice were exposed to 75% oxygen from P7 to P12. Retinas collected at P17 from omega-6 or omega-3 polyunsaturated fatty acid fed dams and exposed to high oxygen or room air conditions were analyzed to determine lipid mediator profiles. Polyunsaturated fatty acid derived products were extracted, identified, and quantified using a deuterium-labeled internal standard and MS-MS based mediator informatics^23. Results were obtained from retinas of six mice, each from a separate litter. Treatments with synthetic RvD1 (7S,8R,17S-trihydroxy-docosa-4Z,9E,11E,13Z,15E,19Z-hexaenoic acid), RvE1 (5S,12R,18R-trihydroxy-6Z,8E,10E,14Z,16E-eicosapentaenoic acid) and Neuroprotectin-D1 (10R,17S dihydroxy-docosa-4Z,7Z,11E,13E,15Z,19z-hexaneoic acid) were performed in 4 litters of mice. RvD1, RvE1 and NPD1 were prepared by organic synthesis according to published procedures matching physical and biological criteria^14,24,25. The pups were injected i.p. daily from P6-P17 (before, during, and after exposure to 75% oxygen) with 10 ng of either RvD1 (n=14), RvE1 (n=10) or NPD1 (n=14) or Saline/EtOH (n=14) vehicle. Following retinal staining and whole-mounting, neovascularization and vaso-obliteration were quantified at P17. Vaso-obliteration was also assessed at P8 (after 24 hours of 75% oxygen exposure) in pups given 10 ng of RvD1 (n=7), RvE1 (n=9), NPD1 (n=7), or saline/EtOH vehicle injections (n=6) i.p. from P5-P8. Vaso-obliteration was quantified on retinal whole-mounts following FITC-dextran intracardiac perfusion and fixation as above. […]

[3] = tested on: oxygen-induced vessel loss (retinal vasculature); test: Oxygen-induced vessel loss (vaso-obliteration) at P8 after 24 hours of 75% oxygen; type: in vivo, mouse; conditions: 10 ng i.p. P5-P8, 24 hours of 75% oxygen
Procedure: as §1, with “P17 mice were given a lethal dose of Avertin (Sigma) and their eyes were enucleated and fixed in 4% paraformaldehyde for 2 h at 4° C. Retinas were isolated and stained overnight with fluoresceinated Griffonia Bandereiraea Simplicifolia Isolectin B4 (Alexa Fluor 488-121411 or Alexa Fluor 594-121413, Molecular Probes) in 1 mM CaCl2 in PBS. Following 2 hours of washes, retinas were whole-mounted with glycerol-gelatin (Sigma) onto polylysin-coated slides with the photoreceptor side up and imaged with a confocal microscope.” left out
Quantification of vaso-obliteration and retinal neovascularization. […] Vaso-obliteration and neovascular tuft formation were quantified by comparing the number of pixels in the affected areas with the total number of pixels in the retina. […]
Resolvins and Neuroprotectins. […] Retinas collected at P17 from omega-6 or omega-3 polyunsaturated fatty acid fed dams and exposed to high oxygen or room air conditions were analyzed to determine lipid mediator profiles. Polyunsaturated fatty acid derived products were extracted, identified, and quantified using a deuterium-labeled internal standard and MS-MS based mediator informatics^23. […] Following retinal staining and whole-mounting, neovascularization and vaso-obliteration were quantified at P17. Vaso-obliteration was also assessed at P8 (after 24 hours of 75% oxygen exposure) in pups given 10 ng of RvD1 (n=7), RvE1 (n=9), NPD1 (n=7), or saline/EtOH vehicle injections (n=6) i.p. from P5-P8. […]

[4] = tested on: oxygen-induced retinopathy (retinal vasculature); test: O2-induced retinopathy: vaso-obliteration and neovascularization at P17; type: in vivo, mouse
[5] = i.p. injection, 500 μg/mouse at P7, P12, P14, P16, omega-6 PUFA fed mice
[6] = intraocular (intravitreous) injection 12.5 μg on P12, omega-6 PUFA fed mice

Row | Compound | TNF-α mRNA expression levels in inflammatory models [1] | decrease in neovascularization (Tufts) compared to vehicle [2] [%] | decrease in vessel loss (VO) compared to vehicle control [2] [%] | neovascularization at P17 compared to saline controls [2] | protection from vaso-obliteration compared to saline-injected controls [2] | oxygen-induced vessel loss (VO) at P8 compared to saline-injected control [3] | pathologic neovascularization compared to saline injected controls [4, 5] | vaso-obliteration (vessel loss) compared to saline injected controls [4, 5] | retinal neovascularization compared to fellow saline-injected eye [4, 6] | vaso-obliteration compared to fellow saline-injected eye [4, 6]
1 | CC/C=C\C[C@H](O)\C=C/C=C/C=C/[C@H](O)C/C=C\C/C=C\CCC(=O)O [NPD1, 10R,17S dihydroxy-docosa-4Z,7Z,11E,13E,15Z,19z-hexaneoic acid] | significantly reduce TNF-α mRNA expression levels | 30 | 40 | less neovascularization | significant protection from vaso-obliteration | No apparent differences in vessel loss; also recorded: no protective action | – | – | – | –
2 | CC/C=C\C[C@H](O)/C=C/C=C\C=C\C=C\[C@@H](O)[C@@H](O)C/C=C\CCC(=O)O [RvD1, 7S,8R,17S-trihydroxy-docosa-4Z,9E,11E,13Z,15E,19Z-hexaenoic acid] | significantly reduce TNF-α mRNA expression levels | 30 | 40 | less neovascularization | significant protection from vaso-obliteration | No apparent differences in vessel loss | – | – | – | –
3 | CC[C@@H](O)/C=C/C=C\C[C@@H](O)/C=C/C=C/C=C\[C@@H](O)CCCC(=O)O [RvE1, 5S,12R,18R-trihydroxy-6Z,8E,10E,14Z,16E-eicosapentaenoic acid] | significantly reduce TNF-α mRNA expression levels | 30 | 40 | less neovascularization | significant protection from vaso-obliteration | No apparent differences in vessel loss; also recorded: no protective action | – | – | – | –
4 | etanercept | – | – | – | – | – | – | significantly protected; also recorded: significant reduction in pathologic neovascularization | significantly protected; also recorded: significant reduction in vaso-obliteration | suppressed retinal neovascularization; also recorded: significantly improved neovascularization | significantly reduce vaso-obliteration

Source: patent publication US20100105773A1, “USE OF RESOLVINS AND DOCOSATRIENES AND ANALOGUES THEREOF FOR THE TREATMENT OF ANGIOGENESIS AND OCULAR NEOVASCULARIZATION” (THE CHILDREN'S MEDICAL CENTER CORPORATION, priority 2006, published 2010)
